Test results from US20050272700A1, “Topical treatment and prevention of human papilloma virus (HPV) infection” (priority 2004, published 2005).

Tests used:
[1] = Stability testing of I3C solutions and formulations by HPLC; assay type: physicochemical; conditions: for amount of the active remaining: aqueous medium, 5° C.; for loss of potency: 2 weeks
Protocol: Stability testing of the formulations was performed by HPLC analysis. The area of the peak representing I3C or a derivative thereof was monitored.

[2] = test system: DMBA-induced mammary tumors; conditions: Wattenberg and Loub 1978; cited from earlier work

Structure (SMILES) | amount of the active remaining ([1]; pH 6.0, 2 weeks) | amount of the active remaining ([1]; pH 8.0, 2 weeks) | loss of potency ([1]; same aqueous composition at pH 7.4 without hydroxypropyl-β-cyclodextrin) [%] | loss of potency ([1]; solution at pH 7.4 with added hydroxypropyl-β-cyclodextrin) [%] | reduction of DMBA-induced mammary tumors [2]
OCc1c[nH]c2ccccc12 [Composition I3C, indole-3-carbinol] | completely decomposed | about 93% | 16 | 1.3 | 
c1ccc2c(Cc3c[nH]c4ccccc34)c[nH]c2c1 [DIM, 3,3′-diindoylmethane] |  |  |  |  | somewhat effective
